These results are taken from publication PMC4814829, “Design, synthesis, crystallization and biological evaluation of new symmetrical biscationic compounds as selective inhibitors of human Choline Kinase α1 (ChoKα1)” (Scientific Reports, 2016).

In one data set the test system is A549 cells. Nature of the data set: Antiproliferative MTT assay. It is filed as cell-based. Conditions: Homo sapiens, 72 h, mean ± SEM. The protocol: (§1) Human T-cell leukemia (Jurkat), human B-cell leukemia (RS 4,11) and human promyelocytic leukemia (HL-60) cells were grown in RPMI-1640 medium (Gibco, Milan, Italy). Breast adenocarcinoma (MCF-7 and MDA-MB-231), human non-small cell lung carcinoma (A549), human cervix carcinoma (HeLa), human prostate adenocarcinoma (PC-3), and human colon adenocarcinoma (HT-29) cells were grown in DMEM medium (Gibco, Milan, Italy). Both media were supplemented with 115 units/mL of penicillin G (Gibco, Milan, Italy), 115 μg/mL of streptomycin (Invitrogen, Milan, Italy) and 10% fetal bovine serum (Invitrogen, Milan, Italy). Stock solutions (10 mM) of the different compounds were obtained by dissolving them in DMSO. Individual wells of 96-well tissue-culture microtiter plates were inoculated with 100 μL of complete medium containing 8 × 10^3 cells. The plates were incubated at 37 °C in a humidified 5% CO2 incubator for 18 h prior to the experiments. After medium removal, 100 μL of fresh medium containing the test compound at different concentrations was added to each well and incubated at 37 °C for 72 h. The percentage of DMSO in the medium in no case exceeded 0.25%.
Background: Tetrazolium dyes change colour on reduction, which living cells bring about.

For a further data set, the system named is HL-60 cells. Kind of data set: Antiproliferative MTT assay. Type of data set: cell-based. Conditions: Homo sapiens, 72 h, mean ± SEM. The protocol: as §1
For another data set, the system named is HT-29 cells. Kind of data set: Antiproliferative MTT assay. It is filed as cell-based. The conditions noted are these: Homo sapiens, 72 h, mean ± SEM. The procedure:
as §1

Another data set concerns HeLa cells. Nature of the data set: Antiproliferative MTT assay. Conditions: Homo sapiens, 72 h, mean ± SEM. It is filed as cell-based. The protocol:
as §1

The subject of another data set is Jurkat cells. Kind of data set: Antiproliferative MTT assay. The conditions noted are these: Homo sapiens, 72 h, mean ± SEM. It is filed as cell-based. The protocol: as §1
For a further data set, the system named is MCF-7 cells. Kind of data set: Antiproliferative MTT assay. It is filed as cell-based. Conditions: Homo sapiens, MCF7, 72 h, mean ± SEM. The protocol:
as §1

Data set [1] relates to MDA-MB-231 cells. Nature of the data set: Antiproliferative MTT assay. It is filed as cell-based. Conditions: Homo sapiens, 72 h, mean ± SEM. The protocol: as §1
The next data set has as its system RS4,11 cells. Kind of data set: Antiproliferative MTT assay. The conditions noted are these: Homo sapiens, 72 h, mean ± SEM. It is filed as cell-based. The procedure:
as §1

In a further data set the test system is PBL (+Pha). Nature of the data set: Antiproliferative assay in non-tumoral cells (MTT). Type of data set: cell-based. Conditions: Homo sapiens, non-tumoral cells stimulated with phytohematoagglutinin, 72 h, mean ± SEM. The procedure:
(§2) Peripheral mononuclear cells (PBMC) from healthy donors were obtained by separation on Lymphoprep (Fresenius KABI Norge AS) gradient. After extensive washing, cells were resuspended (1 × 10^6 cells/mL) in RPMI-1640 with 10% fetal bovine serum and incubated overnight. For cytotoxicity evaluations in proliferating PBL cultures, non-adherent cells were resuspended at 5 × 10^5 cells/mL in growth medium, containing 2.5 μg/mL PHA (Irvine Scientific). Different concentrations of the test compounds were added, and viability was determined 72 h later by the MTT test. For cytotoxicity evaluations in resting PBL cultures, non-adherent cells were resuspended (5 × 10^5 cells/mL) and treated for 72 h with the test compounds, as described above.

Another data set relates to PBL (resting). Kind of data set: Antiproliferative assay in non-tumoral cells (MTT). Conditions: Homo sapiens, 72 h, mean ± SEM. Type of data set: cell-based. The protocol:
as §2

For the next data set, the system named is HUVEC. Kind of data set: Antiproliferative assay in non-tumoral cells. It is filed as cell-based. The conditions noted are these: Homo sapiens, mean ± SEM. The procedure:
Human Umbilical Vein Endothelial cells (HUVEC), were prepared from human umbilical-cord veins, as previously described. The adherent cells were maintained in M200 medium added by LSGS (low serum growth supplement), containing FBS, hydrocortisone, hEGF, bFGF, heparin, gentamycin/amphotericin (Life Technologies, Monza, Italy). Once confluent, the cells were detached by trypsin–EDTA solution and used in experiments from the first to sixth passages.

Data set [2] relates to MDA-MB-231 cells. Nature of the data set: Cell-cycle distribution analysis (PI, flow cytometry). It is filed as cell-based, human. The conditions noted are these: MDA-MB-231. The protocol: [The source words this procedure for another cell line and reports this cell line under the same test.] For flow-cytometric analysis of the DNA content, 5 × 10^5 HeLa or Jurkat cells in exponential growth were treated with different concentrations of the test compounds for 24 and 48 h. After the incubation period, the cells were collected, centrifuged, and fixed with ice-cold ethanol (70%). The cells were then treated with lysis buffer containing RNAse A and 0.1% Triton X-100, and then stained with propidium iodide (PI). Samples were analyzed in a Cytomics FC500 flow cytometer (Beckman Coulter). DNA histograms were analyzed using MultiCycle for Windows (Phoenix Flow Systems).

For data set [3], the system named is breast- and colon-cancer cells. On the set-up: method as in earlier work. Conditions: 15 μM; ref 15 (Sanchez-Lopez et al.); cited from earlier work.
A further data set relates to mice. Conditions: mouse, in vivo; cited from earlier work.

Usually GI50 stands for the concentration giving 50% growth inhibition. `CN(c1ccc(Cl)cc1)c1cc[n+](Cc2ccc(-c3ccc(C[n+]4ccc(N(C)c5ccc(Cl)cc5)c5ccccc54)cc3)cc2)c2ccccc12` [RSM932A, reference compound]: the GI50 worked out at 0.45 ± 0.09 µM in the data set on A549 cells; 0.93 ± 0.1 µM in the data set on HL-60 cells; 0.4 ± 0.2 µM with HT-29 cells; 0.83 ± 0.1 µM with HeLa cells; 0.41 ± 0.1 µM in the data set with Jurkat cells; 0.18 ± 0.1 µM with MCF-7 cells. The GI50 in the data set with MDA-MB-231 cells [1] was found to be 0.17 ± 0.05 µM; in the data set on RS4,11 cells, 0.17 ± 0.04 µM; in the data set on PBL (+Pha), 0.23 ± 0.05 µM; in the data set on PBL (resting), 1.1 ± 0.09 µM; in the data set on HUVEC it was 0.46 ± 0.047 µM. Moreover, the “Cells with hypodiploid DNA content (apoptotic cells by cell-cycle analysis)” value with MDA-MB-231 cells [2] is recorded as “negligible percentage of apoptotic cells”. In addition, in data set [3], the “Cell-cycle effect (G1 phase)” value is listed as “significant decrease of the G1 phase”. In the data set on mice, the “Toxicity profile and tolerability” value was “low-toxicity profile with improved tolerability”.
